ChEMBL document CHEMBL3885861, “Open TG-GATES”

Species: Rattus norvegicus
Test: Open TG-GATES - Regimen: Daily Repeat
Assay type: toxicity, organism-based, Sprague-Dawley
Set-up: regimen Daily Repeat, gender Male, age 6 weeks
Details: in vivo, po, 60 mg/kg, route gavage, dose level High; for APTT / Bas / Eos / Fbg / Hb / Ht / Lym / MCH / MCHC / MCV / Mono / Neu / PT / Plat / RBC / Ret / WBC: tissue Blood; for LIVER: tissue Liver; for A/G / ALP / ALT / AST / BUN / CRE / Ca / Cl / DBIL / GLC / IP / K / LDH / Na / PL / RALB / TBIL / TC / TG / TP / gamma-GTP: tissue Plasma

SMILES: O=[N+]([O-])c1ccc(O)c([N+](=O)[O-])c1 [2,4-DINITROPHENOL]
- TERMINAL_BW (72 h, time 3 day): 245.9 g
- APTT (72 h, time 3 day): 15.9 s
- Bas (72 h, time 3 day): 0%
- Eos (72 h, time 3 day): 1%
- Fbg (72 h, time 3 day): 275.4 mg/dL
- Hb (72 h, time 3 day): 13.3 g/dL
- Ht (72 h, time 3 day): 39.2%
- Lym (72 h, time 3 day): 74%
- MCH (72 h, time 3 day): 22 pg
- MCHC (72 h, time 3 day): 33.9%
- MCV (72 h, time 3 day): 64.9 fL
- Mono (72 h, time 3 day): 7%
- Neu (72 h, time 3 day): 18.4%
- PT (72 h, time 3 day): 11.7 s
- Plat (72 h, time 3 day): 139 x10_4/uL
- RBC (72 h, time 3 day): 604.8 x10_4/ul
- Ret (72 h, time 3 day): 9.7%
- WBC (72 h, time 3 day): 124 x10_2/uL
- LIVER (72 h, time 3 day): 12.8 g
- A/G (72 h, time 3 day): 2.2
- ALP (72 h, time 3 day): 1454.2 IU/L
- ALT (72 h, time 3 day): 31.8 IU/L
- AST (72 h, time 3 day): 66.2 IU/L
- BUN (72 h, time 3 day): 17.8 mg/dL
- CRE (72 h, time 3 day): 0.4 mg/dL
- Ca (72 h, time 3 day): 11.4 mg/dL
- Cl (72 h, time 3 day): 104.6 meq/L
- DBIL (72 h, time 3 day): 0.014 mg/dL
- GLC (72 h, time 3 day): 169.2 mg/dL
- IP (72 h, time 3 day): 6.6 mg/dL
- K (72 h, time 3 day): 5 meq/L
- LDH (72 h, time 3 day): 98.2 IU/L
- Na (72 h, time 3 day): 137.8 meq/L
- PL (72 h, time 3 day): 155.2 mg/dL
- RALB (72 h, time 3 day): 3.8 g/dL
- TBIL (72 h, time 3 day): 0.02 mg/dL
- TC (72 h, time 3 day): 82 mg/dL
- TG (72 h, time 3 day): 125 mg/dL
- TP (72 h, time 3 day): 5.6 g/dL
- gamma-GTP (72 h, time 3 day): 0.2 IU/L
- TERMINAL_BW ([…], time 7 day): 262.8 g
- TERMINAL_BW ([…], time 14 day): 327.9 g
- TERMINAL_BW ([…], time 28 day): 396.2 g
- APTT ([…], time 7 day): 16.6 s
- Bas ([…], time 7 day): 0%
- Eos ([…], time 7 day): 1.4%
- Fbg ([…], time 7 day): 263.8 mg/dL
- Hb ([…], time 7 day): 14.2 g/dL
- Ht ([…], time 7 day): 41.9%
- Lym ([…], time 7 day): 78.4%
- MCH ([…], time 7 day): 21.5 pg
- MCHC ([…], time 7 day): 33.9%
- MCV ([…], time 7 day): 63.4 fL
- Mono ([…], time 7 day): 6.4%
- Neu ([…], time 7 day): 14.6%
- PT ([…], time 7 day): 11.9 s
- Plat ([…], time 7 day): 128.6 x10_4/uL
- RBC ([…], time 7 day): 662.2 x10_4/ul
- Ret ([…], time 7 day): 6.1%
- WBC ([…], time 7 day): 126.8 x10_2/uL
- APTT ([…], time 14 day): 16.3 s
- Bas ([…], time 14 day): 0%
- Eos ([…], time 14 day): 0.8%
- Fbg ([…], time 14 day): 263.8 mg/dL
- Hb ([…], time 14 day): 14.3 g/dL
- Ht ([…], time 14 day): 42.2%
- Lym ([…], time 14 day): 74.8%
- MCH ([…], time 14 day): 21.6 pg
- MCHC ([…], time 14 day): 33.9%
- MCV ([…], time 14 day): 63.5 fL
- Mono ([…], time 14 day): 10.4%
- Neu ([…], time 14 day): 14.2%
- PT ([…], time 14 day): 12.2 s
- Plat ([…], time 14 day): 124 x10_4/uL
- RBC ([…], time 14 day): 665.2 x10_4/ul
- Ret ([…], time 14 day): 4.2%
- WBC ([…], time 14 day): 114.6 x10_2/uL
- APTT ([…], time 28 day): 16.4 s
- Bas ([…], time 28 day): 0%
- Eos ([…], time 28 day): 1%
- Fbg ([…], time 28 day): 294.4 mg/dL
- Hb ([…], time 28 day): 15.6 g/dL
- Ht ([…], time 28 day): 46.4%
- Lym ([…], time 28 day): 73.4%
- MCH ([…], time 28 day): 20.5 pg
- MCHC ([…], time 28 day): 33.6%
- MCV ([…], time 28 day): 60.9 fL
- Mono ([…], time 28 day): 6.6%
- Neu ([…], time 28 day): 18.8%
- PT ([…], time 28 day): 12 s
- Plat ([…], time 28 day): 105.6 x10_4/uL
- RBC ([…], time 28 day): 763.2 x10_4/ul
- Ret ([…], time 28 day): 2.9%
- WBC ([…], time 28 day): 117.4 x10_2/uL
- LIVER ([…], time 7 day): 13.7 g
- LIVER ([…], time 14 day): 17.8 g
- LIVER ([…], time 28 day): 21.6 g
- A/G ([…], time 7 day): 2.3
- ALP ([…], time 7 day): 1317.4 IU/L
- ALT ([…], time 7 day): 39.4 IU/L
- AST ([…], time 7 day): 72 IU/L
- BUN ([…], time 7 day): 17 mg/dL
- CRE ([…], time 7 day): 0.3 mg/dL
- Ca ([…], time 7 day): 11.5 mg/dL
- Cl ([…], time 7 day): 104.2 meq/L
- DBIL ([…], time 7 day): 0.014 mg/dL
- GLC ([…], time 7 day): 167.8 mg/dL
- IP ([…], time 7 day): 7.2 mg/dL
- K ([…], time 7 day): 4.8 meq/L
- LDH ([…], time 7 day): 116.8 IU/L
- Na ([…], time 7 day): 140.2 meq/L
- PL ([…], time 7 day): 150.4 mg/dL
- RALB ([…], time 7 day): 4 g/dL
- TBIL ([…], time 7 day): 0.016 mg/dL
- TC ([…], time 7 day): 77.6 mg/dL
- TG ([…], time 7 day): 115 mg/dL
- TP ([…], time 7 day): 5.7 g/dL
- gamma-GTP ([…], time 7 day): 0.8 IU/L
- A/G ([…], time 14 day): 2.2
- ALP ([…], time 14 day): 1140.6 IU/L
- ALT ([…], time 14 day): 38 IU/L
- AST ([…], time 14 day): 79.2 IU/L
- BUN ([…], time 14 day): 18.6 mg/dL
- CRE ([…], time 14 day): 0.4 mg/dL
- Ca ([…], time 14 day): 11.8 mg/dL
- Cl ([…], time 14 day): 104.6 meq/L
- DBIL ([…], time 14 day): 0.014 mg/dL
- GLC ([…], time 14 day): 167.8 mg/dL
- IP ([…], time 14 day): 6 mg/dL
- K ([…], time 14 day): 4.1 meq/L
- LDH ([…], time 14 day): 134.2 IU/L
- Na ([…], time 14 day): 138 meq/L
- PL ([…], time 14 day): 151.2 mg/dL
- RALB ([…], time 14 day): 4.1 g/dL
- TBIL ([…], time 14 day): 0.02 mg/dL
- TC ([…], time 14 day): 67.4 mg/dL
- TG ([…], time 14 day): 208.6 mg/dL
- TP ([…], time 14 day): 6 g/dL
- gamma-GTP ([…], time 14 day): 0 IU/L
- A/G ([…], time 28 day): 1.9
- ALP ([…], time 28 day): 925 IU/L
- ALT ([…], time 28 day): 45.6 IU/L
- AST ([…], time 28 day): 93.8 IU/L
- BUN ([…], time 28 day): 20.8 mg/dL
- CRE ([…], time 28 day): 0.5 mg/dL
- Ca ([…], time 28 day): 11.4 mg/dL
- Cl ([…], time 28 day): 105 meq/L
- DBIL ([…], time 28 day): 0.018 mg/dL
- GLC ([…], time 28 day): 167.6 mg/dL
- IP ([…], time 28 day): 5 mg/dL
- K ([…], time 28 day): 4.2 meq/L
- LDH ([…], time 28 day): 160 IU/L
- Na ([…], time 28 day): 140.2 meq/L
- PL ([…], time 28 day): 144.4 mg/dL
- RALB ([…], time 28 day): 4.1 g/dL
- TBIL ([…], time 28 day): 0.026 mg/dL
- TC ([…], time 28 day): 69 mg/dL
- TG ([…], time 28 day): 177.8 mg/dL
- TP ([…], time 28 day): 6.3 g/dL
- gamma-GTP ([…], time 28 day): 0.6 IU/L
